{"source": "patent US6956047B1", "about": "“Corticotropin releasing factor antagonists” (Pfizer Inc., priority 1995, dated 2005)", "note": "Counter-ions that a name gives are not always drawn."}
{"smiles": "CCC(CC)Nc1cc(C)nc(Nc2c(C)cc(C)cc2C)c1C(N)=O", "note": "[Example 232, 4-(1-Ethyl-propylamino)-6-methyl-2-(2,4,6-trimethyl-phenylamino)-nicotinamide]", "values": [{"measurement": "melting point", "result": "204 to 206", "unit": "°C"}]}
{"smiles": "CCC(CC)Oc1cc(C)nc(Nc2c(C)cc(C)cc2C)c1NC(=O)CCl", "note": "[Example 237, 2-Chloro-N-[4-(1-ethyl-propoxy)-6-methyl-2-(2,4,6-trimethyl-phenylamino)-pyridin-3-yl]-acetamide]", "values": [{"measurement": "melting point", "result": "79 to 82", "unit": "°C"}]}
{"smiles": "CCC(CC)Oc1cc(C)nc(Nc2c(C)cc(C)cc2C)c1C(=O)n1ccnc1", "note": "[Example 183, [4-(1-Ethyl-propoxy)-6-methyl-2-(2,4,6-trimethyl-phenylamino)-pyridin-3-yl]-imidazol-1-yl-methanone]", "values": [{"measurement": "melting point", "result": "120 to 122", "unit": "°C"}]}
{"smiles": "CCC(CC)Oc1cc(C)nc(Nc2c(C)cc(C)cc2C)c1", "note": "[Example 203, [4-(1-Ethyl-propoxy)-6-methyl-pyridin-2-yl]-(2,4,6-trimethyl-phenyl)-amine]", "values": [{"measurement": "melting point", "result": "98 to 100", "unit": "°C"}]}
{"smiles": "CCC(CC)Oc1nc(C)nc(Oc2c(C)cc(C)cc2C)c1C#N", "note": "[Example 35, 4-(1-Ethyl-propoxy)-2-methyl-6-(2,4,6-trimethyl-phenoxy)-pyrimidine-5-carbonitrile]", "values": [{"measurement": "melting point", "result": "128 to 130", "unit": "°C"}]}
{"smiles": "CCC(CC)Oc1cc(C)nc2c1[nH]c(=O)n2-c1c(C)cc(C)cc1C", "note": "[Example 279, 7-(1-Ethyl-propoxy)-5-methyl-3-(2,4,6-trimethyl-phenyl)-1,3-dihydro-imidazo[4,5-b]pyridin-2-one]", "values": [{"measurement": "melting point", "result": "184 to 186", "unit": "°C"}]}
{"smiles": "CCOC(=S)SCc1c(OC(CC)CC)cc(C)nc1Nc1c(C)cc(C)cc1C", "note": "[Example 190, Dithiocarbonic acid O-ethyl ester S-[4-(1-ethyl-propoxy)-6-methyl-2-(2,4,6-trimethyl-phenylamino)-pyridin-3-ylmethyl] ester]", "values": [{"measurement": "melting point", "result": "55 to 57", "unit": "°C"}]}
{"smiles": "CCC(CC)Oc1cc(C)nc(Nc2c(C)cc(C)cc2C)c1CC(C(=O)OC)C(=O)OC", "note": "[Example 185, 2-[4-(1-Ethyl-propoxy)-6-methyl-2-(2,4,6-trimethyl-phenylamino)-pyridin-3-ylmethyl]-malonic acid dimethyl ester]", "values": [{"measurement": "melting point", "result": "96 to 98", "unit": "°C"}]}
{"smiles": "CCC(COC)Nc1cc(C)nc(Oc2c(C=O)cccc2OC)c1[N+](=O)[O-]", "note": "(stereo not drawn) [Example 114, 3-Methoxy-2-[4-(1-methoxymethyl-propylamino)-6-methyl-3-nitro-pyridin-2-yloxy]-benzaldehyde]", "values": [{"measurement": "melting point", "result": "126.5 to 130.5", "unit": "°C"}]}
{"smiles": "CCC(CC)Oc1cc(C)nc(Oc2c(C)cc(COC)cc2C)c1C", "note": "[Example 67, 4-(1-Ethyl-propoxy)-2-(4-methoxymethyl-2,6-dimethyl-phenoxy)-3,6-dimethyl-pyridine]", "values": [{"measurement": "melting point", "result": "58 to 60", "unit": "°C"}]}
{"smiles": "CCC(CC)Oc1cc(C)nc2c1n(C)c(=O)n2-c1c(C)cc(C)cc1C", "note": "[Example 280, 7-(1-Ethyl-propoxy)-1,5-dimethyl-3-(2,4,6-trimethyl-phenyl)-1,3-dihydro-imidazo[4,5-b]pyridin-2-one]", "values": [{"measurement": "melting point", "result": "151 to 153", "unit": "°C"}]}
{"smiles": "CCC(O)C(CC)Nc1cc(C)nc(Oc2c(C)cc(Cl)cc2C)c1CO", "note": "(stereo not drawn) [Example 139, 4-[2-(4-Chloro-2,6-dimethyl-phenoxy)-3-hydroxymethyl-6-methyl-pyridin-4-ylamino]-hexan-3-ol]", "values": [{"measurement": "melting point", "result": "145 to 148", "unit": "°C"}]}
{"smiles": "CCC(CC)Nc1cc(C)nc(Oc2c(C)cc(Cl)cc2C)c1N", "note": "[Example 97, 2-(4-Chloro-2,6-dimethyl-phenoxy)-N4-(1-ethyl-propyl)-6-methyl-pyridine-3,4-diamine]", "values": [{"measurement": "melting point", "result": "72 to 74", "unit": "°C"}]}
{"smiles": "CCC(Nc1cc(C)nc(Oc2c(C)cc(Cl)cc2C)c1CO)C(C)O", "note": "(stereo not drawn) [Example 138, 3-[2-(4-Chloro-2,6-dimethyl-phenoxy)-3-hydroxymethyl-6-methyl-pyridin-4-ylamino]-pentan-2-ol]", "values": [{"measurement": "melting point", "result": "180 to 182", "unit": "°C"}]}
{"smiles": "CCC(CC)Oc1cc(C)nc(Nc2c(C)cc(C)cc2C)c1CNC(=O)CCl", "note": "[Example 188, 2-Chloro-N-[4-(1-ethyl-propoxy)-6-methyl-2-(2,4,6-trimethyl-phenylamino)-pyridin-3-ylmethyl]-acetamide]", "values": [{"measurement": "melting point", "result": "142 to 144", "unit": "°C"}]}
{"smiles": "CCCN(CC)c1cc(C)nc(Oc2c(C)cc(C)cc2C)c1C", "note": "(as salt: HCl) [Example 72, [3,6-Dimethyl-2-(2,4,6-trimethyl-phenoxy)-pyridin-4-yl]-ethyl-propyl-amine]", "values": [{"measurement": "melting point", "result": "167 to 169", "unit": "°C"}]}
{"smiles": "CCN(CC)c1cc(C)nc(Oc2c(C)cc(Cl)cc2C)c1C", "note": "(as salt: HCl) [Example 78, [2-(4-chloro-2,6-dimethyl-phenoxy)-3,6-dimethyl-pyridin-4-yl]-diethyl-amine]", "values": [{"measurement": "melting point", "result": "184 to 185", "unit": "°C"}]}
{"smiles": "CCCN(CC)c1cc(C)nc(Oc2c(C)cc(Cl)cc2C)c1C", "note": "(as salt: HCl) [Example 77, [2-(4-chloro-2,6-dimethyl-phenoxy)-3,6-dimethyl-pyridin-4-yl]-ethyl-propyl-amine]", "values": [{"measurement": "melting point", "result": "74 to 76", "unit": "°C"}]}
{"smiles": "CCC(COC)Nc1cc(C)nc(Oc2c(OC)cc(OC)cc2OC)c1[N+](=O)[O-]", "note": "(stereo not drawn) [Example 114, (1-Methoxymethyl-propyl)-[6-methyl-3-nitro-2-(2,4,6-trimethoxy-phenoxy)-pyridin-4-yl]-amine]", "values": [{"measurement": "melting point", "result": "126.8 to 129.5", "unit": "°C"}]}
{"smiles": "CCC(CC)Nc1cc(C)nc(Oc2c(C)cc(C)cc2C)c1CN", "note": "[Example 248, [3-Aminomethyl-6-methyl-2-(2,4,6-trimethyl-phenoxy)-pyridin-4-yl]-(1-ethyl-propyl)-amine]", "values": [{"measurement": "melting point", "result": "117 to 119", "unit": "°C"}]}
{"smiles": "Cc1cc(C)c(Oc2nc(C)cc(C(O)C(F)(F)F)c2C)c(C)c1", "note": "(stereo not drawn) [Example 212, 1-[3,6-Dimethyl-2-(2,4,6-trimethyl-phenoxy)-pyridin-4-yl]-2,2,2-trifluoro-ethanol]", "values": [{"measurement": "melting point", "result": "134 to 139", "unit": "°C"}]}
{"smiles": "CCC(CC)Oc1nc(C)nc(Nc2c(C)cc(C)cc2C)c1C(=O)O", "note": "[Example 273, 4-(1-Ethyl-propoxy)-2-methyl-6-(2,4,6-trimethyl-phenylamino)-pyrimidine-5-carboxylic acid]", "values": [{"measurement": "melting point", "result": "118 to 120", "unit": "°C"}]}
{"smiles": "CCC(CC)Nc1cc(C)nc(Sc2c(C)cc(C)cc2C)c1C", "note": "[Example 69, [3,6-Dimethyl-2-(2,4,6-trimethyl-phenylsulfanyl)-pyridin-4-yl]-(1-ethyl-propyl)-amine]", "values": [{"measurement": "melting point", "result": "108 to 110", "unit": "°C"}]}
{"smiles": "CCC(CC)Nc1cc(C)nc2c1nc(C)n2-c1c(C)cc(C)cc1C", "note": "[Example 282, [2,5-Dimethyl-3-(2,4,6-trimethyl-phenyl)-3H-imidazo[4,5-b]pyridin-7-yl]-(1-ethyl-propyl)-amine]", "values": [{"measurement": "melting point", "result": "101 to 103", "unit": "°C"}]}
{"smiles": "CCC(CC)Oc1cc(C)nc(Nc2c(C)cc(C)cc2C)c1CN(C)C.Cl", "values": [{"measurement": "melting point", "result": "85 to 88", "unit": "°C"}]}
{"smiles": "CCN(CC)c1cc(C)nc(Oc2c(C)cc(C)cc2C)c1C", "note": "(as salt: HCl) [Example 73, [3,6-dimethyl-2-(2,4,6-trimethyl-phenoxy)-pyridin-4-yl]-diethyl-amine]", "values": [{"measurement": "melting point", "result": "180 to 181", "unit": "°C"}]}
{"smiles": "CCNc1cc(C)nc(Sc2c(C)cc(C)cc2C)c1C", "note": "[Example 71, [3,6-dimethyl-2-(2,4,6-trimethyl-phenylsulfanyl)-pyridin-4-yl]-ethyl-amine]", "values": [{"measurement": "melting point", "result": "114 to 116", "unit": "°C"}]}
{"smiles": "C#CC(CC)Nc1cc(C)nc(Oc2c(C)cc(C)cc2C)c1C(=O)O", "note": "(stereo not drawn) [Example 140, 4-(1-Ethyl-prop-2-ynylamino)-6-methyl-2-(2,4,6-trimethyl-phenoxy)-nicotinic acid]", "values": [{"measurement": "melting point", "result": "131 to 133", "unit": "°C"}]}
{"smiles": "CCC(CC)Oc1nc(C)nc(Nc2c(C)cc(C)cc2C)c1C(N)=O", "note": "[Example 233, 4-(1-Ethyl-propoxy)-2-methyl-6-(2,4,6-trimethyl-phenylamino)-pyrimidine-5-carboxylic acid amide]", "values": [{"measurement": "melting point", "result": "174 to 176", "unit": "°C"}]}
{"smiles": "CCC(CC)Oc1cc(C)nc(Nc2c(C)cc(C)cc2C)c1C(=O)N(C)C", "note": "(as salt: HCl) [Example 193, 4-(1-Ethyl-propoxy)-6,N,N-trimethyl-2-(2,4,6-trimethyl-phenylamino)-nicotinamide]", "values": [{"measurement": "melting point", "result": "197 to 200", "unit": "°C"}]}
{"smiles": "CCC(CC)Oc1cc(C)nc(Oc2c(C)cc(C)cc2C)c1[N+](=O)[O-]", "note": "[Example 173, 4-(1-Ethyl-propoxy)-6-methyl-3-nitro-2-(2,4,6-trimethyl-phenoxy)-pyridine]", "values": [{"measurement": "melting point", "result": "106 to 109", "unit": "°C"}]}
{"smiles": "CCCCN(CC)c1cc(C)nc(Oc2c(C)cc(Cl)cc2C)c1C", "note": "(as salt: HCl) [Example 76, Butyl-[2-(4-chloro-2,6-dimethyl-phenoxy)-3,6-dimethyl-pyridin-4-yl]-ethyl-amine]", "values": [{"measurement": "melting point", "result": "177 to 178", "unit": "°C"}]}
{"smiles": "CCC(CC)Nc1cc(C)nc(Oc2c(C)cc(C)cc2C)c1NC(C)=O", "note": "[Example 98, N-[4-(1-Ethyl-propylamino)-6-methyl-2-(2,4,6-trimethyl-phenoxy)-pyridin-3-yl]-acetamide]", "values": [{"measurement": "melting point", "result": "154 to 156", "unit": "°C"}]}
{"smiles": "CCC(CC)Nc1cc(C)nc2c1nc(N)n2-c1c(C)cc(C)cc1C", "note": "[Example 283, N7-(1-Ethyl-propyl)-5-methyl-3-(2,4,6-trimethyl-phenyl)-3H-imidazo[4,5-b]pyridine-2,7-diamine]", "values": [{"measurement": "melting point", "result": "158 to 160", "unit": "°C"}]}
{"smiles": "CCN(C)c1cc(C)nc(Oc2c(C)cc(C)cc2C)c1C", "note": "(as salt: HCl) [Example 74, [3,6-Dimethyl-2-(2,4,6-trimethyl-phenoxy)-pyridin-4-yl]-ethyl-methyl-amine]", "values": [{"measurement": "melting point", "result": "173 to 174", "unit": "°C"}]}
{"smiles": "CCC(CC)Oc1nc(C)nc(Nc2c(C)cc(C)cc2C)c1CO", "note": "[Example 274, [4-(1-Ethyl-propoxy)-2-methyl-6-(2,4,6-trimethyl-phenylamino)-pyrimidin-5-yl]-methanol]", "values": [{"measurement": "melting point", "result": "121 to 123", "unit": "°C"}]}
